Molecules are shown by their SMILES. Where two headings read alike, the source gives them in different places.

The nature of data set [1]: Partition between n-octanol and aqueous tris hydrochloride (Kpart). The format is physicochemical. Conditions: for Partition Coefficient, Kpart, Iron complex [Fe^III-(compound)3]: 100 µM. As for the experimental part: Acid washed glassware is used throughout and, following mixing of 5 ml of the 10^-4 M aqueous solution with 5 ml of n-octanol for 1 minute, the aqueous n-octanol mixture is centrifuged at 1,000 g for 30 seconds. The two resulting phases are separated for a concentration determination by spectrophotometry on each.

Data set [2] concerns human erythrocytes. The settings on record: pH 7.4.
Experimental: (§1) Following this period of incubation, an aliquot of the erythrocyte/medium mixture was placed above a layer of silcone oil and the erythrocytes separated by centrifugation through the oil. The ^59 Fe levels associated with the erythrocytes and the incubation medium were then counted.
The next data set relates to apotransferrin. The data set can be described thus: Ability of iron complexes to donate iron to apotransferrin. Type of data set: biochemical. Conditions: within 10 minutes, 37° C., pH 7.4, 10^-4 M complex, 10^-4 M apotransferrin. As for the experimental part:
At 10, 20, 30 and 60 minute intervals 1 ml aliquots were removed from the media and added to a PD10 colum. 0.5 ml fractions were collected directly into scintillation vials for counting. The ^59 Fe associated with both the apotransferrin and the ligand was estimated as a function of time. […] Thus, although both the 3-hydroxypyrid-2-ones and the 3-hydroxypyrid-4-ones are able to denote iron to apotransferrin, the former are the more efficient.

The next data set deals with rat jejunal sac. The data set can be described thus: Iron uptake into the serosal space of the inverted rat jejunal sac. As for the experimental part:
Rats (male Sprague Dawley, 60 g) were killed and the jejunum removed, everted and cut into three segments (4 cm length). The segments were tied at both ends and filled with Krebs Ringer buffer (0.2 ml) and incubated in Krebs Ringer buffer containing ^59 Fe complexes at 37° C. for periods up to 1 hour. The contents of the sac were counted for ^59 Fe and measured spectrophotometrically.

For data set [3], the system named is cat intestine. The settings on record: in vivo.
Experimental: (§2) The total ^59 Fe present in the kidneys and urine was then measured in each case.
(§3) As well as the kidneys, various other tissues of the cat which recieved the Fe(III) 1-ethyl-3-hydroxypyrid-2-one were studied to assess the percentage of the original ^59 Fe dose which was present.
Data set [4] can be described thus: Clearance and tissue distribution of 59Fe after intravenous injection in the cat. The format is in vivo.
Text: as §3
For data set [5], the system named is human erythrocytes. The data set can be described thus: Accumulation of iron complexes by human erythrocytes. The settings on record: 1 hour, 37° C., pH 7.4, 10^-3 M complex, 5% erythrocyte suspension; mean of at least three determinations.
Experimental: as §1
In data set [6] the test system is cat intestine. The data set can be described thus: In vivo permeability of cat intestine towards iron complexes: 59Fe in blood, kidneys, urine and tissues after administration into the small intestine. The settings on record: for Concentration of [59Fe] in blood: 1 mg iron, pyridone complex with 20-fold excess of free pyridone.
Experimental: as §2, §3
Setting [7] is: n-octanol / 20 mM tris hydrochloride pH 7.4, 20° C., 10^-4 M, read-out: Partition Coefficient, Kpart, Free Compound (converted).
Where [8] appears, read: n-octanol/tris hydrochloride, pH 7.4.
[9] abbreviates: relative to ferric chloride as 1, 37° C., up to 1 hour.

Turning to `CCCCn1ccc(=O)c(O)c1C` [1-butyl-3-hydroxy-2-methylpyrid-4-one, 1-Butyl-3-hydroxy-2-methylpyrid-4-one], in data set [1] (setting [7]), the logD at 100 µM is 0.724.

Regarding `CCn1ccc(=O)c(O)c1C` [1-ethyl-3-hydroxy-2-methylpyrid-4-one, 1-Ethyl-3-hydroxy-2-methylpyrid-4-one], the logD at 100 µM in data set [1] (setting [7]) was -0.398.

Take `CCn1cccc(O)c1=O` [1-ethyl-3-hydroxypyrid-2-one]: the logD at 100 µM in data set [1] (setting [8]) was -0.284.

Take `Cc1c(O)c(=O)ccn1C(C)C` [3-Hydroxy-2-methyl-1-(1'-methylethyl)pyrid-4-one]: the logD at 100 µM in data set [1] (setting [7]) is -0.0223.

With `Cc1c(O)c(=O)ccn1C` [3-hydroxy-1,2-dimethylpyrid-4-one], the logD at 100 µM in data set [1] (setting [8]) was -0.678.

Molecule `CC(C)n1cccc(O)c1=O` [3-hydroxy-1-(1'-methylethyl)-pyrid-2-one, 3-hydroxy-1-(1'-methylethyl)pyrid-2-one] had a logD at 100 µM in data set [1] (setting [8]) of 0.491.

`Cn1cccc(O)c1=O` [3-hydroxy-1-methylpyrid-2-one] gave a logD at 100 µM in data set [1] (setting [8]) of -0.357.

`CCCn1cccc(O)c1=O` [3-hydroxy-1-propylpyrid-2-one] showed a logD at 100 µM in data set [1] (setting [8]) of -0.108.

As to `CCCCn1ccc(=O)c([O-])c1C.CCCCn1ccc(=O)c([O-])c1C.CCCCn1ccc(=O)c([O-])c1C.[Fe+3]` [3:1 iron (III) complex of 1-butyl-3-hydroxy-2-methylpyrid-4-one], in data set [1] (setting [8]), the “Partition Coefficient, Kpart, Iron complex [Fe^III-(compound)3]” value (“Partition Coefficient, Kpart” for short) was 7.70. The “Amount of complex entering erythrocytes” value in the data set with human erythrocytes [2] came to 1630 n.mole.

Turning to `CCn1ccc(=O)c([O-])c1C.CCn1ccc(=O)c([O-])c1C.CCn1ccc(=O)c([O-])c1C.[Fe+3]` [3:1 iron (III) complex of 1-ethyl-3-hydroxy-2-methylpyrid-4-one], the “Partition Coefficient, Kpart” value in data set [1] (setting [8]) is on record as 0.03. Besides, in the data set on apotransferrin, the “iron removed from the iron complex by apotransferrin” value was 55%. In addition, the “Amount of complex entering erythrocytes” value with human erythrocytes [2] is 20 n.mole.

Take `Cc1c([O-])c(=O)ccn1C.Cc1c([O-])c(=O)ccn1C.Cc1c([O-])c(=O)ccn1C.[Fe+3]` [3:1 iron (III) complex of 3-hydroxy-1,2-dimethylpyrid-4-one]: in data set [1] (setting [8]), the “Partition Coefficient, Kpart” value is on record as 0.05. Moreover, the “Amount of complex entering erythrocytes” value in the data set on human erythrocytes [2] amounted to 25 n.mole.

With `Cc1c([O-])c(=O)ccn1C(C)C.Cc1c([O-])c(=O)ccn1C(C)C.Cc1c([O-])c(=O)ccn1C(C)C.[Fe+3]` [3:1 iron (III) complex of 3-hydroxy-1-(1'-methylethyl)-2-methylpyrid-4-one], the “Partition Coefficient, Kpart” value in data set [1] (setting [8]) was determined as 0.20. Besides, in the data set on human erythrocytes [2], the “Amount of complex entering erythrocytes” value stood at 22 n.mole.

Regarding `CC(C)n1cccc([O-])c1=O.CC(C)n1cccc([O-])c1=O.CC(C)n1cccc([O-])c1=O.[Fe+3]` [3:1 iron (III) complex of 3-hydroxy-1-(1'-methylethyl)pyrid-2-one], the “Partition Coefficient, Kpart” value in data set [1] (setting [8]) is listed as 13.50. Moreover, in the data set with human erythrocytes [2], the “Amount of complex entering erythrocytes” value was determined as 770 n.mole.

Take `Cn1cccc([O-])c1=O.Cn1cccc([O-])c1=O.Cn1cccc([O-])c1=O.[Fe+3]` [3:1 iron (III) complex of 3-hydroxy-1-methylpyrid-2-one]: the “Partition Coefficient, Kpart” value in data set [1] (setting [8]) came out at 0.10. The “Amount of complex entering erythrocytes” value in the data set on human erythrocytes [2] is reported as 60 n.mole.

With `CCCn1cccc([O-])c1=O.CCCn1cccc([O-])c1=O.CCCn1cccc([O-])c1=O.[Fe+3]` [3:1 iron (III) complex of 3-hydroxy-1-propylpyrid-2-one], the “Partition Coefficient, Kpart” value in data set [1] (setting [8]) worked out at 6.20. The “Amount of complex entering erythrocytes” value in the data set on human erythrocytes [2] was 710 n.mole.

`CCCn1ccc(=O)c([O-])c1C.CCCn1ccc(=O)c([O-])c1C.CCCn1ccc(=O)c([O-])c1C.[Fe+3]` [3:1 iron (III) complex of 3-hydroxy-2-methyl-1-propylpyrid-4-one]: the “Amount of complex entering erythrocytes” value in the data set on human erythrocytes [2] came out at 53 n.mole.

On to `[Cl][Fe]([Cl])[Cl]` [FeCl3, ferric chloride], for which the “Relative Iron Uptake” value in the data set on rat jejunal sac is 1.

`O=C([O-])[C@H](O)[C@@H](O)[C@H](O)[C@H](O)CO.O=C([O-])[C@H](O)[C@@H](O)[C@H](O)[C@H](O)CO.[Fe+2]` [Fe^II gluconate]: the “Relative Iron Uptake” value in the data set on rat jejunal sac was 1.6.

Turning to `O=C([O-])CN(CCN(CC(=O)[O-])CC(=O)[O-])CC(=O)[O-].[Fe+3]` [Fe^III EDTA, iron (III) EDTA], the “percentage of the total dose in the urine” value in the data set with cat intestine [3] (cat, 4 h) was 21%. Moreover, in the data set on cat intestine [3], the “clearance into the urine” value was “cleared rapidly into the urine”.

Take `O=C1O[C@H]([C@@H](O)CO)C(O)=C1O` [Fe^III ascorbate, iron (III) ascorbate, reference compound]: the logD at 100 µM in data set [1] (setting [8]) is -2.82. Further, the “Relative Iron Uptake” value with rat jejunal sac (setting [9]) is recorded as 0.4.

Take `CCn1cccc([O-])c1=O.CCn1cccc([O-])c1=O.CCn1cccc([O-])c1=O.[Fe+3]` [iron complex of 1-ethyl-3-hydroxypyrid-2-one]: in data set [1] (n-octanol / 20 mM tris hydrochloride pH 7.4, 20° C., 10^-4 M), the “Partition Coefficient, Kpart” value amounted to 1.06. For the same molecule, the “iron removed from the iron complex by apotransferrin” value in the data set with apotransferrin was “over 90%”. Besides, the “Relative Iron Uptake” value in the data set with rat jejunal sac (setting [9]) was determined as 37. For the same molecule, in data set [4], the “dose appearing in the urine” value is “less than 1%”. Moreover, the “half life of clearance from the circulation” value in data set [4] was 45 min. In addition, the “Percentage of original 59Fe dose, Blood” value in data set [4] (after 4 hours) came to 7%; in the data set on cat intestine [6] (intrajejunal, after 4 hours) it was 3%. Also, the “Percentage of original 59Fe dose, Heart” value in data set [4] (after 4 hours) was 1.1%; in the data set on cat intestine [6] (intrajejunal, after 4 hours), 1.5%. The “Percentage of original 59Fe dose, Kidneys” value in data set [4] (after 4 hours) is given as 1%; with cat intestine [6] (intrajejunal, after 4 hours), 0.05%. The “Percentage of original 59Fe dose, Liver” value in data set [4] (after 4 hours) worked out at 5.3%; in the data set with cat intestine [6] (intrajejunal, after 4 hours), 1.6%. Also, the “Percentage of original 59Fe dose, Skeletal Muscle” value is given as 0.5% in data set [4] (after 4 hours) and 0.8% in the data set on cat intestine [6] (intrajejunal, after 4 hours). For the same molecule, the “Percentage of original 59Fe dose, Spleen” value is recorded as 0.7% in data set [4] (after 4 hours) and 0.1% with cat intestine [6] (intrajejunal, after 4 hours). The “Percentage of original 59Fe dose, Urine” value is recorded as 0.5% in data set [4] (after 4 hours) and 0.01% with cat intestine [6] (intrajejunal, after 4 hours). Also, the “Percentage of original 59Fe dose, Reticuloendothelial System (Bone Marrow)” value in data set [4] (after 4 hours, estimated) was approximately 80%; in the data set on cat intestine [6] (intrajejunal, after 4 hours, estimated), approximately 60%. The “Amount of complex entering erythrocytes” value with human erythrocytes [5] was 250 n.mole. In addition, the “Concentration of [59Fe] in blood” value in the data set on cat intestine [6] (20 minutes after administration into small intestine) was 200 c.p.m; in the data set on cat intestine [6] (40 minutes after administration into small intestine) it was 475 c.p.m; in the data set with cat intestine [6] (60 minutes after administration into small intestine), 643 c.p.m; in the data set on cat intestine [6] (80 minutes after administration into small intestine), 661 c.p.m; in the data set on cat intestine [6] (100 minutes after administration into small intestine), 784 c.p.m; in the data set with cat intestine [6] (120 minutes after administration into small intestine), 870 c.p.m. In addition, the “Concentration of [59Fe] in blood” value in the data set on cat intestine [6] (140 minutes after administration into small intestine) is 834 c.p.m; in the data set with cat intestine [6] (160 minutes after administration into small intestine), 750 c.p.m; in the data set with cat intestine [6] (180 minutes after administration into small intestine), 900 c.p.m; in the data set on cat intestine [6] (240 minutes after administration into small intestine) it was 948 c.p.m. For the same molecule, in the data set with cat intestine [6] (4 hours, into small intestine), the “clearance into the urine” value is “very slow”. Also, in the data set with cat intestine [6] (4 hours, into small intestine), the “percentage of the total dose in the kidneys” value worked out at 0.05%. For the same molecule, in the data set on cat intestine [6] (4 hours, into small intestine), the “percentage of the total dose in the urine” value is “no more than 0.01%”. The “59Fe in the sternum” value in the data set with cat intestine [6] (confirms reticuloendothelial system (bone marrow)) is “high levels of ^59 Fe in the sternum”. Moreover, the “distribution of the iron in the body” value in the data set with cat intestine [6] (intrajejunal) is reported as “widely distributed throughout the body”. The “Percentage of original 59Fe dose, Intestinal Tissue” value with cat intestine [6] (intrajejunal, after 4 hours) was 30%.

The values are drawn from US4550101A, “Iron complexes of hydroxy pyridones useful for treating iron deficiency anemia” (priority 1982, dated 1985).
